Reference: patent US10292385B2, “Method for supression of infection by plant virus” (priority 2014, dated 2019)

Columns and labels:
adult whiteflies = assay: Observation of adult whitefly survival after spraying compound A; format: in vivo, sweetpotato whiteflies; settings: one week after spraying
Description: From the above, it is conceivable that the present invention greatly enhances the effect of suppressing plant virus infection attained by the compound A.

TYLCV = TYLCV infection suppression test on chemical-sprayed cherry tomatoes exposed to viruliferous adult sweetpotato whiteflies (Test Example 1); format: in vivo, tomato yellow leaf curl virus (TYLCV); settings: for Percentage of TYLCV infection suppressed, Determined value: cherry tomato, 16 plants, PCR and symptom after 30 days
Description: Seedlings of cherry tomatoes (cultivar: ‘YellowPear’) were transferred to small pots and grown until 2- to 2.5-leaf stages. A chemical having been adjusted to a predetermined concentration by dilution was sprayed thereon in a sufficient amount (the amount was such that the chemical solution dripped from the leaves), and the plants on which the diluted chemical has been sprayed were dried under a shielded condition in a greenhouse. In an aluminum-made large test container (length×width×height =68×44×82 cm, the upper surface and four side surfaces thereof are present as mesh surfaces for aeration), 16 pots containing the chemical-sprayed cherry tomatoes were equally arranged, and installation stands for releasing adult sweetpotato whiteflies were arranged at two positions on a diagonal line in the container. Chemical-resistant adult sweetpotato whiteflies to chemicals such as organophosphorus insecticides, carbamate insecticides, synthetic pyrethroid insecticides, ecdysis regulating insecticides, and neonicotinoid insecticides (hereinafter, chemical resistant adult sweetpotato whiteflies is simply referred to as adult sweetpotato whiteflies) were released for 3 days to suck a cherry tomato for TYLCV acquisition, so that the whiteflies were acquired TYLCV. Note that the chemical-resistant sweetpotato whiteflies used were kindly provided from Kumamoto Agricultural Research Center. The cherry tomato leaves were cut out together with the adult sweetpotato whiteflies settled on the infected cherry tomato, and equally left on the two flying sources in the aluminum-made container. After the leaves wither up, the adult sweetpotato whiteflies spontaneously spread inside the test container. The adult sweetpotato whiteflies were equally scattered to the two flying sources such that the number of individuals released was approximately 1 or 2.5 per plant (e.g.: in the case where the number of the adult sweetpotato whitefly individuals is approximately 1 per plant, 8 whiteflies×2 positions=16 whiteflies in the test container). The release period was set to 7 days. In conducting the test, any test chemical was at a practical concentration. […]

glycerin diacetomonolaurate [compound A]
survival of adult whiteflies after spraying (adult whiteflies): adult whiteflies survived one week thereafter
Percentage of TYLCV infection suppressed, Corrected value (TYLCV; 1.0 whiteflies/plant, corrected with the untreatment of test plot 5): (50.0) %
Percentage of TYLCV infection suppressed, Determined value (TYLCV; chemical-resistant adult sweetpotato whiteflies released 1.0 whiteflies/plant for 7 days): 62.5%
Percentage of TYLCV infection suppressed, Determined value (TYLCV; chemical-resistant adult sweetpotato whiteflies released 2.5 whiteflies/plant for 7 days): 50.0%
TYLCV infection suppressing effect (in words) (TYLCV; whiteflies released for 7 days on sprayed cherry tomato, corrected value compared with theoretical value): suppressed to some extent
